According to patent US20210015886A1, “COMPOSITION FOR IMPROVING MILD COGNITIVE IMPAIRMENT AND METHOD FOR IMPROVING MILD COGNITIVE IMPAIRMENT” (TOKAI BUSSAN CO., LTD., priority 2019, published 2021):

Assays:
[1] = stated as known; cited from earlier work
[2] = Antioxidant activity against hydroxyl radicals (degradation of target protein, FIG. 2A); format: biochemical; conditions: prevention of degradation of target protein
Source text: FIG. 2A is a hydroxyl radical, in which 1 is untreated target protein, 2 is no antioxidant added, 3 is IMDP added, 4 is vitamin C added, 5 is ferulic acid added, 6 is IMDP+vitamin C+ferulic acid added; and
(§1) Therefore, by coexisting with these antioxidants, the antioxidant effect of IMDP is retained both for hydroxyl radicals and peroxynitrite radicals.

[3] = Antioxidant activity against peroxynitrite radicals (proteolytic action on target protein, FIG. 2B); format: biochemical; conditions: prevention of degradation of target protein
Source text: FIG. 2B is a proteolytic action by a peroxynitrite radical.
as §1

[4] = stated as known; cited from earlier work; remark: listed apart in the source

In the case of `CC1=C(/C=C/C(C)=C/C=C/C(C)=C/C=C/C=C(C)/C=C/C=C(C)/C=C/C2=C(C)C(=O)[C@@H](O)CC2(C)C)C(C)(C)C[C@H](O)C1=O` [astaxanthin], the “antioxidant activity against hydroxyl radicals (known)” value [1] is given as “strong antioxidant activity”.

In the case of `COc1cc(/C=C/C(=O)O)ccc1O` [ferulic acid], the “antioxidant activity against hydroxyl radicals” value [2] was “strong antioxidant activity”.

In the case of `O=C1O[C@H]([C@@H](O)CO)C(O)=C1O` [vitamin C], the “antioxidant activity against peroxynitrite radicals” value [3] is listed as “strong antioxidant activity” and the “antioxidant activity against peroxynitrite radicals (known)” value [4] is listed as “strong antioxidant activity”.

In the case of vitamin E, the “antioxidant activity against hydroxyl radicals (known)” value [1] is given as “strong antioxidant activity”.
